As a reminder, the inhibition is how much of the control response was suppressed. A word on the pIC50: it is the IC50 on a negative log10 scale, so that one unit is a factor of ten. A low value points to a high IC50. The term melting point denotes the temperature, or range, at which the solid turns liquid.

pIC50: −log10 of the molar value.

Our source for the inhibition, IC50 and melting point values is US6559157B2, “Dihydronaphthalene compounds” (Daiichi Pharmaceutical Co., Ltd., priority 1997, dated 2003).

For one series, the target named is T1, Aromatase (Homo sapiens, UniProt P11511).
T1 construct: Aromatase was prepared from the microsome fraction of human placenta tissue; from tissue; host or cells: human placenta (microsome fraction)
T1 sequence (P11511 1-503): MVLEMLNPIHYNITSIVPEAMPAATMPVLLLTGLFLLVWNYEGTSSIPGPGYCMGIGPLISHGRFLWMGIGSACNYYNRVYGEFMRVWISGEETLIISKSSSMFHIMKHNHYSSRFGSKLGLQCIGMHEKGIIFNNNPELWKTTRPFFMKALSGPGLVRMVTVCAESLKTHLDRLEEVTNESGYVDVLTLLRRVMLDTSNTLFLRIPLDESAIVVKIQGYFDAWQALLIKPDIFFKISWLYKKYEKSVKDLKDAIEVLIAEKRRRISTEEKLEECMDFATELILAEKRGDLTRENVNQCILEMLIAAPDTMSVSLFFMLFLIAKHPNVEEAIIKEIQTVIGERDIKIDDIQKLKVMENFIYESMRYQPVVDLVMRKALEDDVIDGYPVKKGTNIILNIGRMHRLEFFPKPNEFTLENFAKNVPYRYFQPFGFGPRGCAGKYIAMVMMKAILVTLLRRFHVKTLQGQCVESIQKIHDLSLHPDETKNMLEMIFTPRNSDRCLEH
Kind of series: Aromatase inhibiting activity test, human placenta microsomes. Type of series: biochemical. The following applies: testosterone 2.5 μM, NADPH 250 μM; for inhibition at 25 µM: inhibitor 25 μM. Here is the method: Measurement was done according to the method of Rolf W. Hartmann and Christine Batzl (J. Med. Chem., 29, 8, 1368, 1986).
Aromatase was prepared from the microsome fraction of human placenta tissue according to the method of Thompson and Siiteri (J. Biol. Chem., 249, 5346, 1974). Microsomes obtained were suspended in a phosphate buffer solution (0.05 M, pH 7.4) and stored at −30° C.
Enzyme activity was evaluated by measuring the amount of ^3H2O produced by [1β, 2β-^3H] testosterone during the reaction according to the methods of Foster A. B. et al. (Foster A. B. et al., J. Med. Chem., 26, 50, 1983) and Graves P. E. and Salhanick H. A. (Endocrinology, 105, 52, 1979) as follows. To a test tube containing 0.225 μCi of [1β, 2β-^3H]testosterone were added 5 μM unlabeled testosterone, 2 mM NADPH, 20 mM glucose-6-phosphate, 1EU of glucose-6-phosphate dehydrogenase, and a test compound (0-250 μM) dissolved in phosphate buffer (0.05 M, pH 7.4). The test compound was dissolved in ethanol and diluted with the phosphate buffer. The final ethanol concentration in a reaction solution of the control and the test compound was 2%. This test tube was preincubated in a water bath at 30° C. for 5 minutes. Next, 0.5 mg of the microsome enzyme was added to start the reaction. The total volume of the reaction solution was 0.5 ml. Water phase portions (100 μl) were taken 0, 7, 14, and 21 minutes after the start of the reaction and added to 200 μl of cold 1 mM HgCl2. To this were added 200 μl of a 2% dextran-treated activatd charcoal (DCC) suspension. The admixture was shaken for 20 minutes and then centrifuged at 1500× g for 5 minutes to isolate the steroid adsorbed on DCC. The amount of the produced ^3H2O in the fractionated supernatant was counted by a liquid scintillation counter. Control samples with no test compound were tested in the same manner. The inhibiting activity (%) was calculated from the measurement using calculation formula 1.
Enzyme source: Human placenta microsomes
Inhibitor concentration: 25 μM (inhibiting activity (%) was calculated)
Substrate concentration: 2.5 μM (testosterone)
NADPH concentration: 250 μM

For a further series, the system named is Thromboxane A2 synthesis. In words: Thromboxane A2 synthesis inhibiting activity test in citric acid-treated human whole blood. It counts as cell-based. The following applies: inhibitor 50 μM, collagen-stimulated. How it is done:
Measurement was done as follows according to the method of Rolf W. Hartmann et al. (Arch. Pharm. Pharm. Med. Chem., 329, 251, 1996). To 0.5 ml of citric acid-treated human whole blood were added 10 μl of an ethanol/K-Na-phosphate buffer solution (pH 7.4) containing a test compound, and the admixture was preincubated at 37° C. for 10 minutes. Dazoxybene hydrochloride (100 μM) was added to the blanks. Next, 50 μl of a collagen solution (final collagen concentration: 53.6 μg/ml) were added and incubation was continued at 37° C. for 10 minutes. The reaction was stopped by adding 0.4 ml of a 20% trichloroacetic acid solution in 0.6 M hydrochloric acid, and the admixture was centrifuged at 4400× g for 10 minutes. The resulting supernatant (0.5 ml) was fractionated and added to 0.5 ml of a 0.53% thiobarbituric acid solution (solvent: K-Na-phosphate buffer (pH 7.4)), and the admixture was heated for 70 minutes and then allowed to stand at room temperature for 30 minutes. This sample was measured by a fluorophotometer (excitation wave length: 533 nm, measurement wave length: 550 nm). Control samples without test compounds were tested in the same manner. The inhibiting activity (%) was calculated from the measurements using formula 1.
Enzyme source: Citric acid-treated human whole blood
Inhibitor concentration: 50 μM (inhibiting activity (%) was calculated)
Substrate concentration: 25 μM (progesterone)

The molecule `CC1=C(Cc2cccnc2)CCc2ccccc21` [Example 15] had an inhibition at 25 µM against Aromatase of 56%. Molecule `COc1cccc2c1CCC(Cc1cccnc1)=C2C` [Example 16] gave an inhibition at 25 µM on Aromatase of 50%. On the same count and under the same terms, as for `COc1ccc2c(c1)CCC(Cc1cccnc1)=C2C` [Example 17], the figure is 52%.

At Aromatase, `COc1ccc2c(c1)C(C)=C(Cc1cccnc1)CC2` [Example 18] gave an inhibition at 25 µM of 61%. `CC1=C(Cc2ccncc2)CCc2ccccc21` [Example 19] had an inhibition at 50 µM with Thromboxane A2 synthesis of 25%. The molecule also had a pIC50 against Aromatase of 6.64. The corresponding values for `COc1cccc2c1CCC(Cc1ccncc1)=C2C` [Example 20] are 60% and 6.42. For `COc1ccc2c(c1)CCC(Cc1ccncc1)=C2C` [Example 21] the same measures were 43% and 6.19. In the case of `COc1ccc2c(c1)C(C)=C(Cc1ccncc1)CC2` [Example 22], on Aromatase, the pIC50 was 6.20. `CC1=C(Cc2cccnc2)CCc2c(O)cccc21` [Example 23] showed an inhibition at 25 µM on Aromatase of 60%. Consider `CC1=C(Cc2cccnc2)CCc2cc(O)ccc21` [Example 24], for which the inhibition at 25 µM at Aromatase stood at 37%. `CC1=C(Cc2cccnc2)CCc2ccc(O)cc21` [Example 25] showed a pIC50 against Aromatase of 5.19. The same measure, in the same setting: as for `CC1=C(Cc2ccncc2)CCc2c(O)cccc21` [Example 26], the figure is 6.15. Still for that read-out and setting: to `CC1=C(Cc2ccncc2)CCc2cc(O)ccc21` [Example 27] belongs 5.89. Same read-out and setting: as for `CC1=C(Cc2ccncc2)CCc2ccc(O)cc21` [Example 28], the figure is 5.92; as for `CCC1=C(Cc2ccncc2)CCc2c(OC)cccc21` [Example 37], 6.02; as for `CCC1=C(Cc2ccncc2)CCc2cc(OC)ccc21` [Example 38], 6.10. Consider `CCC1=C(Cc2ccncc2)CCc2ccc(OC)cc21` [Example 39], for which the pIC50 on Aromatase was 5.89.

For `CCOc1ccc2c(c1)C(C)=C(Cc1c[nH]cn1)CC2` [Example 40], the pIC50 on Aromatase was 5.92.

On to `COc1cccc2c1CCC(Cc1ccncc1)=C2` [Example 41], for which the negative logarithm of the IC50 (pIC50) against Aromatase was 6.02. At Aromatase, `COc1ccc2c(c1)CCC(Cc1ccncc1)=C2` [Example 42] gave a pIC50 of 6.10. On Aromatase, `COc1ccc2c(c1)C=C(Cc1ccncc1)CC2` [Example 43] gave a negative-log IC50 (pIC50) of 5.77. Against the preceding molecule, the pIC50 is 0.33 log units lower. Same read-out and setting: to `CCCC1=C(Cc2ccncc2)CCc2cc(OC)ccc21` [Example 44] belongs 6.07; to `Oc1ccc2c(c1)CCC(Cc1ccncc1)=C2` [Example 45], 5.46; to `COc1ccc2c(c1)CCC(Cc1c[nH]cn1)=C2` [Example 46], 5.74.

Molecule `COc1cccc2c1CCC(=Cc1c[nH]cn1)C2=O` [Example 50] came in with a melting point of 194 to 195 °C. On the same count and under the same terms, as for `COc1cccc2c1CCC(Cc1c[nH]cn1)C2=O` (centres unmarked) [Example 51], the figure is 145.5 to 148 °C; as for `COc1cccc2c1CCC(Cc1c[nH]cn1)=C2C` [Example 52], 132.5 to 135 °C; as for `CCC1=C(Cc2c[nH]cn2)CCc2cc(OC)ccc21` [Example 53], 138 to 141.5 °C. The same measure, in the same setting: to `CCC1=C(Cc2c[nH]cn2)CCc2ccc(OC)cc21` [Example 54] belongs 111.5 to 113.5 °C; to `CCC1=C(Cc2c[nH]cn2)CCc2c(OC)cccc21.Cl` [Example 55], 164 to 166 °C. For `CCCC1=C(Cc2c[nH]cn2)CCc2cc(OC)ccc21` [Example 56], the melting point lay in the range of 123.5 to 124.5 °C.

With `CCCC1=C(Cc2c[nH]cn2)CCc2c(OC)cccc21` [Example 57], the melting point was in the range of 174.5 to 175.5 °C.

For the molecule `COc1ccc2c(c1)CCC(Cc1c[nH]cn1)=C2c1ccccc1` [Example 58], the melting point lay in the range of 201.5 to 202.5 °C. Same read-out and setting: as for `COc1ccc2c(c1)C(c1ccccc1)=C(Cc1c[nH]cn1)CC2` [Example 59], the figure is 198.5 to 199.5 °C. The molecule `COc1cccc2c1CCC(Cc1c[nH]cn1)=C2c1ccccc1` [Example 60] gave a melting point of 200 to 202 °C. The same measure, in the same setting: to `COc1ccc2c(c1)CCC(Cc1c[nH]cn1)=C2Cc1ccccc1` [Example 61] belongs 122.5 to 123 °C; to `COc1cccc2c1CCC(Cc1c[nH]cn1)=C2.Cl` [Example 62], 192.5 to 194.5 °C; to `COc1ccc2c(c1)C=C(Cc1c[nH]cn1)CC2` [Example 63], 155.5 to 156.5 °C. The same measure, in the same setting: to `CCOc1cccc2c1CCC(=Cc1c[nH]cn1)C2=O` [Example 64] belongs 122 to 124 °C; to `CCOc1cccc2c1CCC(Cc1c[nH]cn1)C2=O` (centres unmarked) [Example 65], 132 to 134 °C; to `CCOc1ccc2c(c1)CCC(=Cc1c[nH]cn1)C2=O` [Example 66], 133.5 to 134.5 °C.

The molecule `CCOc1ccc2c(c1)CCC(Cc1c[nH]cn1)C2=O` (centres unmarked) [Example 67] registered a melting point of 143.5 to 144.5 °C.

In turn, `CCOc1ccc2c(c1)C(=O)C(=Cc1c[nH]cn1)CC2` [Example 68] came in with a melting point of 139.5 to 141 °C. Still for that read-out and setting: to `CCOc1ccc2c(c1)C(=O)C(Cc1c[nH]cn1)CC2` (centres unmarked) [Example 69] belongs 176.5 to 178.5 °C; to `CCOc1cccc2c1CCC(Cc1c[nH]cn1)=C2C` [Example 70], 133.5 to 136 °C. Still for that read-out and setting: to `CCOc1ccc2c(c1)CCC(Cc1c[nH]cn1)=C2C` [Example 71] belongs 126 to 127 °C; to `CCOc1ccc2c(c1)C(C)=C(Cc1c[nH]cn1)CC2.Cl` [Example 72], 170.5 to 171.5 °C. In the case of `CCCOc1ccc2c(c1)CCC(=Cc1c[nH]cn1)C2=O` [Example 73], the melting point fell in the range of 156.5 to 158 °C. Still for that read-out and setting: to `CCCOc1ccc2c(c1)CCC(Cc1c[nH]cn1)C2=O` (centres unmarked) [Example 74] belongs 134.5 to 136 °C. In turn, `CCCOc1ccc2c(c1)CCC(Cc1c[nH]cn1)=C2C` [Example 75] returned a melting point of 91.5 to 92 °C. Same read-out and setting: as for `CC(C)COc1ccc2c(c1)CCC(=Cc1c[nH]cn1)C2=O` [Example 76], the figure is 79 to 81.5 °C; as for `CC(C)COc1ccc2c(c1)CCC(Cc1c[nH]cn1)C2=O` (centres unmarked) [Example 77], 114.5 to 115 °C; as for `CC1=C(Cc2c[nH]cn2)CCc2cc(OCC(C)C)ccc21` [Example 78], 96 to 97 °C.
